Experimental data reported in US20260217709A1, “2-OXOQUINAZOLINE DERIVATIVES AS METHIONINE ADENOSYLTRANSFERASE 2A INHIBITORS” (IDEAYA BIOSCIENCES, INC., priority 2018, published 2026).
pIC50: −log10 of the molar value.

Experiments:
[1] = biological target: T1, hMAT2A (Homo sapiens, UniProt P31153); assay: Phosphate Sensor Fluorescence Assay (MAT2A enzyme inhibition); format: biochemical; set-up: Human MAT2A: Cepter, amino acids 1-395; purchased Cepter clone ID 329, lot 00023-123; clone ID 334, lot 00023-148; conditions: L-methionine 500 uM, ATP 500 uM, 1 hour room temperature
Procedure: (§1) The ability of the compound of present disclosure to inhibit MAT2A enzyme was determined using the Malachite Green or Phosphate Sensor Fluorescence Assay described below.
B. Phosphate Sensor Fluorescence Assay
MAT2A enzyme is incubated with a test compound in DMSO or DMSO and its substrates (L-methionine and ATP) in a microtiter plate. The enzymatic reaction is stopped by the addition of Working Phosphate Sensor Mixture. The plate is analyzed for fluorescence at 450 nm.
Test compounds or DMSO were added to the appropriate well suing D300e digital dispenser. 5 μl/well of Assay Buffer was added to the wells corresponding to the negative control and 5 μl/well of MAT2A was added to all the wells except for those corresponding to the negative control. After incubating the plate at room temperature for 15 minutes, 5 μl/well of the 1 mM L-methionine/1 mM ATP mixture was added to all wells. The plate was centrifuged at 1000 rpm for 1 minute and then incubated at room temperature for 1 hour. 5 μl of the Working Phosphate Sensor Mixture was added to all wells and the plate was centrifuged at 1000 rpm for 1 minute. The plate was read for fluorescence at 450 nm after exciting at 430 nm.
Percent inhibition was calculated in Chemical and Biological Information System (CBIS), (ChemInnovation Software Inc.). […]

[2] = biological target: T1, hMAT2A; assay: Malachite Green Assay (MAT2A enzyme inhibition); format: biochemical; set-up: amino acids 1-395; purchased Cepter; conditions: hMAT2A 50 nM, substrates 500 uM each, reaction time 1 hour, 23° C.
Procedure: as §1
L-methionine Substrate: Alfa Aesar catalog #J61904
ATP Substrate: Alfa Aesar cat #J60336
Malachite Green Detection Reagent: Millipore Sigma catalog #MAK307-1KT
Assay buffer: 50 mM Tris, pH 7.5/50 mM KCl/10 mM MgCl2/0.01% Brij-35/1 mM DTT/0.1% BGG
The plate was centrifuged at 1000 rpm for 1 minute and then incubated at room temperature for 1 hour. 5 μL of malachite green detection reagent was added to all the test wells and the plate was centrifuged at 1000 rpm for 1 minute and then incubated at room temperature for 30 minutes. The plate was read for absorbance at 620 nm on a plate reader (e.g., Infinite M1000).

T1 sequence (P31153 whole entry, the tested form may be a part): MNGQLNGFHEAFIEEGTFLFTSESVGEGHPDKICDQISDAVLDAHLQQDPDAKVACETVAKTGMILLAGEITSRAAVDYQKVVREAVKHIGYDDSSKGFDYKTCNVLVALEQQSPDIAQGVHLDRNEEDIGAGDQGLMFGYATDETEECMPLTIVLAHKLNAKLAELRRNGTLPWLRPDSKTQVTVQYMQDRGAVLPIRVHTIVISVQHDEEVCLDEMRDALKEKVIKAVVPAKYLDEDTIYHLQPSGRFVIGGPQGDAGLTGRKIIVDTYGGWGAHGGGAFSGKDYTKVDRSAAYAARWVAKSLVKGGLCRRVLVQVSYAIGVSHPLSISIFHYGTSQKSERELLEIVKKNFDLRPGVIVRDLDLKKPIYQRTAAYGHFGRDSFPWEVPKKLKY

## 1[2-(difluoromethoxy)(3-pyridyl)]-7- cyclopropyl-4-[(cyclopropylmethyl)- amino]hydroquinazolin-2-one [Example 416]
[1]; class symbols
  pIC50: > 6.70

## 7-chloro-1-(2-fluoro-3- metho xyphenyl)-4- hydroxyhydroquinazolin-2-one [Example 332]
[1]; numeric bound
  pIC50: < 5.00

## Nc1nc(=O)n(-c2ccccc2)c2cc(Cl)ccc12 [Example 59, 4-amino-7-chloro-1-phenylquinazolin-2(1H)-one]
[2]
  pIC50: 5.00 to 6.00
